According to article PMC9501280, “Anti-Inflammatory Activity of Soluble Epoxide Hydrolase Inhibitors Based on Selenoureas Bearing an Adamantane Moiety” (International Journal of Molecular Sciences, 2022):

Columns and labels:
E. coli MG1655 pAlkA-lux = assay type: cell-based, Escherichia coli; conditions: compounds 1 μM to 1 mM; Standard = methyl methanesulfonate 1 mM
Description: (§1) The study was carried out with use of the following whole-cell bacterial biosensors: Escherichia coli MG1655 pOxyR-lux, E. coli MG1655 pDps, E. coli MG1655 pSoxS-lux, E. coli MG1655 pColD-lux, E. coli MG1655 pAlkA-lux, E. coli MG1655 pXen7, Bacillus subtilis 168 pNK-AlkA, B. subtilis 168 pNK-MrgA and B. subtilis 168 pNK-DinC. These biosensors by the quantitation of bacterial stress promoters’ activity, make it possible to determine oxidative stress caused by hydrogen peroxide and the superoxide anion radical, SOS response, DNA alkylation, or general toxicity in Gram-positive and Gram-negative B. subtilis and E. coli cells. We used concentrations from 1 μM to 1 mM of the studied compounds added to the suspension of biosensor cells.
(§2) pColD-lux―PcolD is induced by the SOS response; pDps―Pdps is activated in the presence of DNA-oxidizing agents; pSoxS-lux―PSoxS is induced in the presence of superoxide anion radicals; pOxyR-lux―PoxyR is induced in response to the appearance of hydrogen peroxide or organic peroxides; pAlkA-lux―PalkA is induced in response to DNA alkylation. pXen7 contains P. luminescens ZM1 lux genes controlled by its own promoter, which was used as a constitutive.
(§3) The bioluminescence of cells was measured using a Synergy HT luminometer (Biotek, Winooski, VT, USA) at room temperature. Lux biosensors based on E. coli were grown to an early logarithmic phase (OD ≈ 0.1) to achieve a background luminescence approximately 100–1000 RLU at the beginning of the measurements. Lux biosensors based on B. subtilis were grown to a logarithmic phase with an optical density OD ≈ 0.6 (and background luminescence of about 10–500 RLU). Biosensor cell cultures were divided into portions of 200 μL in a 96-well plate. Control toxicants and studied compounds were added to the cell suspension at 2 µL per well. Mitomycin C (at final concentration of 30 μM) for biosensors induced by the SOS response (PcolD and PdinC); methyl methanesulfonate (1 mM) for biosensors induced by DNA alkylation (PalkA); hydrogen peroxide (100 μM) for biosensors induced by presence of peroxides (PoxyR, Pdps and PmrgA) and methyl viologen (100 μM) for PsoxS activation by the presence of superoxide anion radicals. The kinetics of change in luminescence was measured at room temperature.
(§4) To unify the obtained results and eliminate the differences between the experiments due to different initial luminescence values, the luminescence value in each sample was normalized to the initial value according to Equation (1): (1) Lnorm(t, x)=L(t, x)/L(0, x) where Lnorm(t,x)—luminescence normalized to the initial value for the sample x, L(t,x) is the luminescence of sample x at time t and L(0,x) is the initial luminescence of sample x (immediately after addition of the studied compound or control toxicant). This normalization considers the optical density of the studied compound and the luminescence shielding caused by it, which appears immediately after the addition and facilitates the analysis of a slower effect associated with the general toxicity and activation of stress-inducible promoters for which the typical time of activation is in a range from several minutes to 3 h.
(§5) To determine the luminescence induction coefficient of biosensor cells, observed due to changes in the level of reporter genes transcription, the following equation was used:(2) Kind(t, x)=Lnorm(t, x)/Lnorm(t, contr) where Kind(t) is the calculated luminescence induction coefficient of biosensor cells in sample x at time point t, and Lnorm(t,contr) is the normalized luminescence in the control sample of the same biosensor cells without the addition of the studied compounds.

E. coli MG1655 pColD-lux = assay type: cell-based, Escherichia coli; conditions: compounds 1 μM to 1 mM; Standard = Mitomycin C 30 μM
Description: as §1, §2, §3, §4, §5

E. coli MG1655 pDps = assay type: cell-based, Escherichia coli; conditions: compounds 1 μM to 1 mM; Standard = hydrogen peroxide 100 μM
Description: as §1, §2, §3, §4, §5

E. coli MG1655 pOxyR-lux = assay type: cell-based, Escherichia coli; conditions: compounds 1 μM to 1 mM; Standard = hydrogen peroxide 100 μM
Description: as §1, §2, §3, §4, §5

E. coli MG1655 pSoxS-lux = assay: Lux-biosensor, superoxide anion radicals (PsoxS); assay type: cell-based, Escherichia coli; conditions: compounds 1 μM to 1 mM; Standard = methyl viologen 100 μM
Description: as §1, with “biosensor cells. […]” for “biosensor cells.”
The bioluminescence of cells was measured using a Synergy HT luminometer (Biotek, Winooski, VT, USA) at room temperature. Lux biosensors based on E. coli were grown to an early logarithmic phase (OD ≈ 0.1) to achieve a background luminescence approximately 100–1000 RLU at the beginning of the measurements. Lux biosensors based on B. subtilis were grown to a logarithmic phase with an optical density OD ≈ 0.6 (and background luminescence of about 10–500 RLU). […] The kinetics of change in luminescence was measured at room temperature. […]

[1] = tested on: E. coli MG1655 and B. subtilis 168 biosensor cells; assay: Whole-cell bacterial lux-biosensors, whole panel (statements in words); assay type: cell-based, Escherichia coli, Bacillus subtilis; conditions: concentrations from 1 μM to 1 mM
Description: as §1
In this work, biosensor strains based on E. coli MG1655 cells and B. subtilis 168 cells were used.
The bioluminescence of cells was measured using a Synergy HT luminometer (Biotek, Winooski, VT, USA) at room temperature. Lux biosensors based on E. coli were grown to an early logarithmic phase (OD ≈ 0.1) to achieve a background luminescence approximately 100–1000 RLU at the beginning of the measurements. Lux biosensors based on B. subtilis were grown to a logarithmic phase with an optical density OD ≈ 0.6 (and background luminescence of about 10–500 RLU). […] The kinetics of change in luminescence was measured at room temperature.

Structure (SMILES)	max(Kind), E. coli MG1655 pAlkA-lux (E. coli MG1655 pAlkA-lux)	max(Kind), E. coli MG1655 pColD-lux (E. coli MG1655 pColD-lux)	max(Kind), E. coli MG1655 pDps (E. coli MG1655 pDps)	max(Kind), E. coli MG1655 pOxyR-lux (E. coli MG1655 pOxyR-lux)	max(Kind), E. coli MG1655 pSoxS-lux (E. coli MG1655 pSoxS-lux)	activation of stress promoters (in words) [1]
[Se]=C(Nc1ccccc1)NC12CC3CC(CC(C3)C1)C2 [4a, 1-(Adamantan-1-yl)-3-phenylselenourea]	1.15 ± 0.33	1.5 ± 0.6	1.15 ± 0.25	2.62 ± 0.7	1.16 ± 0.19	causes only the activation of stress promoter PoxyR
[Se]=C(Nc1ccccc1)NC1C2CC3CC(C2)CC1C3 (stereo not drawn) [4g, 1-(Adamantan-2-yl)-3-phenylselenourea]	1.05 ± 0.30	1.26 ± 0.31	1.2 ± 0.4	1.12 ± 0.16	1.0 ± 0.1	does not cause an increase in the luminescence
